Patent US11524048B2, “HMGB1 antagonist treatment of severe sepsis” (THE FEINSTEIN INSTITUTES FOR MEDICAL RESEARCH, priority 2019, dated 2022)
Values joined by “and” are separate entries in the source; they are usually repeats but may differ in a detail not shown here. Identical values can stand only once. “Also recorded” adds a separate entry of the source. Like-named read-outs stand apart in the source and are kept apart here. Each block holds one compound with its values, some of them ahead of it.

Tests used:
rats = assay: Single-dose tolerability in rats; assay type: in vivo; conditions: single-dose studies with rats
[1] = tested on: liver ischemia and reperfusion injury; assay: Warm liver ischemia and reperfusion (I/R) in mice; assay type: in vivo, male C57BL/6 mice
[2] = up to 6 hours, versus P5779
STZ-induced diabetes = STZ-induced diabetes in mice; assay type: in vivo; conditions: repetitive K883 500 μg/mouse, vs PBS
Protocol: Mice were administered repetitive administration of […] (500 μg/mouse). […] Repetitive administration of […] was therefore shown to be beneficial in STZ-induced diabetes. […] (*: P<0.05 vs. PBS group. N=6-8 mice per group).

[3] = tested on: DAMP-induced TNF secretion (CIRP, SAA, PEDF, HSP 70, HSP90, H2A), human primary macrophages; assay: DAMPs-induced TNF secretion in human macrophages; assay type: cell-based; conditions: 16 hours
[4] = Pharmacokinetics after intravenous administration to rats (LC-MS)
[5] = tested on: APAP-induced liver injury; assay: APAP-induced liver injury model in mice; assay type: in vivo, male C57BL/6 mice
[6] = tested on: CCI-induced neuropathic pain; assay: Chronic constriction injury (CCI) of the sciatic nerve neuropathic pain model in rats; assay type: in vivo, male Wistar rats
Protocol: Twenty-four male Wistar rats were separated into four groups (n=6/group) for treatment as follows [please give details concerning each of the four groups regarding procedure and treatment:
The CCI rats each received surgery. […] Mechanical and thermal sensitivity tests were also performed over time. Hargreaves Thermal Hypersensitivity test was administered to the rats as well as Von Frey mechanical hypersensitivity test.
Rats (male Wistar, 150-180 gm, n=6/group) had CCI surgery. […] Two weeks after surgery, thermal (Hargreaves) or mechanical (von Frey) hypersensitivity was assessed. *: P<0.05 vs. PBS group.
In this experiment, male Wistar rats (n=6/group) had CCI surgery. […] Mechanical allodynia was assessed 5 hours later. N=6-8 rats/group. *: p<0.05) vs. HMGB1 alone. Mechanical and thermal sensitivity tests were also performed over time.

[7] = tested on: APAP-induced liver injury; conditions: cited from earlier work
[8] = rat, in vivo
[9] = tested on: PAMP-induced TNF release (LPS, PGN, AGE, Poly I:C), human macrophages; conditions: Yang 2015; cited from earlier work
[10] = tested on: HMGB1-induced TNF release, human primary macrophages; conditions: Yang 2015; cited from earlier work
[11] = tested on: liver ischemia and reperfusion injury; conditions: cited from earlier work

Structure (SMILES): NC(=O)N(CCC(=O)O)NC(=O)[C@H](CO)NC(=O)[C@H](CO)NC(=O)N(N)Cc1ccccc1 [K883]
- tolerability (rats): well-tolerated
- liver H&E staining: inflammation (neutrophil infiltration) ([1]; K883, 6 hours after reperfusion, vs vehicle control): reduced inflammation
- protection against hepatic ischemia/reperfusion injury ([1]; mice): protected mice against hepatic ischemia/reperfusion injury
- structural stability in mouse serum [2]: retains structural stability for a longer period of time
- hyperglycemia (STZ-induced diabetes): delays hyperglycemia
- insulitis (STZ-induced diabetes): reduces insulitis
- weight gain (STZ-induced diabetes): improves weight gain
- TNF secretion induced by other DAMPs [3]: is not inhibited
- AUCss ([4]; IV 1 mg/kg, individual rats, 1 mg/kg): 3776 ng·h/mL and 3808 ng·h/mL and 3751 ng·h/mL
- AUCss, Mean ([4]; IV 1 mg/kg, mean of 3 rats): 3778 ng·h/mL
- half-life in serum (FIG. 23) ([4]; rat, in vivo): longer half-life in serum
- serum ALT ([5]; 50 ug/mouse, vs vehicle controls): reduced serum ALT
- liver necrosis / liver injury (H&E histology) ([5]; APAP 350 mg/kg IP, K883 50 μg/mouse IP at 2 and 7 hours post-APAP, 24 hours): reduces APAP-induced liver injury; also recorded: reduced liver necrosis
- mice surviving the toxicity of APAP ([5]; APAP 400 mg/kg, 50 μg/mouse IP once-a-day for 5 days from 2 hours post-APAP, 2 weeks, control group 8): 14 mice out of 15
- percent survival post-APAP ([5]; APAP 400 mg/kg, K883 50 μg/mouse IP once-a-day 5 days, 2 weeks): improved survival outcome; also recorded: significant improvement
- CCI-induced CXCL1 and TNF expression (DRGs) ([6]; DRGs): reduces CCI-induced CXCL1 and TNF expression
- CCI-induced thermal and/or mechanical hypersensitivity (neuropathy) ([6]; Hargreaves / von Frey, K883 800 μg/rat IP once a day for 3 days): improved CCI-induced thermal and mechanical hypersensitivity; also recorded: effectively reduces peripheral neuropathy; also recorded: ameliorated both mechanical and thermal hypersensitivity; also recorded: ameliorated the thermal hypersensitivity
- CCI-induced CXCL1, TNF and IL-1β expression (spine) ([6]; spine): reduces CCI-induced CXCL1, TNF and IL-1β expression

- half-life in serum (FIG. 23) [8]: undetectable
Structure (SMILES): NC(=O)[C@H](CCC(=O)O)NC(=O)[C@H](CO)NC(=O)[C@H](CO)NC(=O)[C@@H](N)Cc1ccccc1 [P5779]
- liver necrosis / liver injury (H&E histology) ([7]; APAP 350 mg/kg, P5779 50 or 500 μg/mouse IP at 2 and 7 hours, vs scrambled control peptide): reduced APAP-mediated liver injury; also recorded: reduced liver necrosis
- percent survival post-APAP ([7]; APAP 400 mg/kg, P5779 500 μg/mouse IP once a day 5 days, 2 weeks, vs scrambled control peptide): increased survival; also recorded: significantly improved
- serum ALT ([7]; P5779 500 ugs/mouse, comparative data): significant reductions in ALT
- TNF release in macrophages stimulated by LPS, PGN, Poly I:C, CpG DNA or S100 A12 [9]: not suppress TNF release
- HMGB1-induced TNF release from macrophages [10]: inhibit HMGB1-induced TNF release from macrophages in a concentration-dependent manner
- serum levels of ALT and AST / tissue damage ([11]; P5779 500 μg/mouse IP at time of I/R surgery, 6 hours): reduced
- liver H&E staining: inflammation (neutrophil infiltration) ([11]; P5779, 6 hours after reperfusion, vs vehicle): reduced inflammation
